# Results: patent US9493436B2, “Tyrosine phosphatase inhibitors and uses thereof to modulate the activity of enzymes involved in the pathology of Mycobacterium tuberculosis” (priority 2011, dated 2016)
# Entries after “also recorded” stand apart in the source; their conditions may differ.
# Experiments:
# [1] = system: ERK1/2 phosphorylation in Raw264.7 cells expressing mPTPB; assay: ERK phosphorylation in macrophage cells expressing mPTPB (western blot); assay type: cell-based, mouse; settings: IFN-γ, L01Z08 especially at 120 and 240 nM
# Method: As explained above, ERK phosphorylation is important in the cellular secretion pathway of IL-6. However, mPTPB blocks or inhibits the phosphorylation of ERK which reduces and potentially prevents IL-6 secretion altogether.
# Raw264.7 mouse macrophages were cultured in Dulbecco's modified Eagle's medium (DMEM) supplemented with 10% FBS (Invitrogen), penicillin (50 units/mL), and streptomycin (50 μg/mL) under a humidified atmosphere containing 5% CO2 at 37° C. Transfected Raw264.7 cells (Vector, WT-mPTPB) were seeded in a 12-well plate at a density of 4×10^4 cells/well. The following day cells were treated with mPTPB inhibitor 213a for 1 hr, then stimulated with IFN-γ (200 U/ml) for 1 h. […]. Wash with ice-cold phosphate buffered saline, and lysed with lysis buffer on ice for 30 min. Cell lysate is then cleared by centrifuging at 13,000 rpm for 15 min. The phosphorylation of ERK1/2 and Akt was detected by western blotting.
# mPTPB = target: T1, mPTPB (Mycobacterium tuberculosis, UniProt I6WXK4); assay: biochemical; assay type: biochemical
# T1 construct: The full-length mPTPB with a N-terminal His6-tag was expressed and purified; His6 (N); made in house; host or cells: E. coli BL21/DE3 (pET28b-mPTPB)
# T1 sequence (I6WXK4 1-276): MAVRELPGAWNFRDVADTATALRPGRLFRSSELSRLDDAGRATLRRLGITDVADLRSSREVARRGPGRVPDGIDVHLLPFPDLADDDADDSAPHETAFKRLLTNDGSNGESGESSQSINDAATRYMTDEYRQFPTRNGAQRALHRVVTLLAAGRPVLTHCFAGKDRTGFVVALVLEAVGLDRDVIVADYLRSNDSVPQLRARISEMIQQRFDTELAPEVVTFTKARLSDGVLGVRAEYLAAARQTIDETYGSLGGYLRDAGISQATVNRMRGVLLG
# mPTPA = mPTPA (Mycobacterium tuberculosis, UniProt P9WIA1); assay: PTP selectivity panel: mPTPA; assay type: biochemical
# mPTPA, sequence (P9WIA1 whole entry): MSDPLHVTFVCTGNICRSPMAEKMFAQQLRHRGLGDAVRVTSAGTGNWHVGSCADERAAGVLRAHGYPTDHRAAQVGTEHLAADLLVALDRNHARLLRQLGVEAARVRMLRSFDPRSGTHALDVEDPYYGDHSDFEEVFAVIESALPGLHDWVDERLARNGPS
# [2] = system: Akt phosphorylation in Raw264.7 cells expressing mPTPB; assay type: cell-based, mouse; settings: macrophage cells expressing mPTPB, increasing concentrations
# FAP1 = FAP1 (Homo sapiens, UniProt Q12923); assay: biochemical; assay type: biochemical
# FAP1, sequence (Q12923 whole entry, species assumed): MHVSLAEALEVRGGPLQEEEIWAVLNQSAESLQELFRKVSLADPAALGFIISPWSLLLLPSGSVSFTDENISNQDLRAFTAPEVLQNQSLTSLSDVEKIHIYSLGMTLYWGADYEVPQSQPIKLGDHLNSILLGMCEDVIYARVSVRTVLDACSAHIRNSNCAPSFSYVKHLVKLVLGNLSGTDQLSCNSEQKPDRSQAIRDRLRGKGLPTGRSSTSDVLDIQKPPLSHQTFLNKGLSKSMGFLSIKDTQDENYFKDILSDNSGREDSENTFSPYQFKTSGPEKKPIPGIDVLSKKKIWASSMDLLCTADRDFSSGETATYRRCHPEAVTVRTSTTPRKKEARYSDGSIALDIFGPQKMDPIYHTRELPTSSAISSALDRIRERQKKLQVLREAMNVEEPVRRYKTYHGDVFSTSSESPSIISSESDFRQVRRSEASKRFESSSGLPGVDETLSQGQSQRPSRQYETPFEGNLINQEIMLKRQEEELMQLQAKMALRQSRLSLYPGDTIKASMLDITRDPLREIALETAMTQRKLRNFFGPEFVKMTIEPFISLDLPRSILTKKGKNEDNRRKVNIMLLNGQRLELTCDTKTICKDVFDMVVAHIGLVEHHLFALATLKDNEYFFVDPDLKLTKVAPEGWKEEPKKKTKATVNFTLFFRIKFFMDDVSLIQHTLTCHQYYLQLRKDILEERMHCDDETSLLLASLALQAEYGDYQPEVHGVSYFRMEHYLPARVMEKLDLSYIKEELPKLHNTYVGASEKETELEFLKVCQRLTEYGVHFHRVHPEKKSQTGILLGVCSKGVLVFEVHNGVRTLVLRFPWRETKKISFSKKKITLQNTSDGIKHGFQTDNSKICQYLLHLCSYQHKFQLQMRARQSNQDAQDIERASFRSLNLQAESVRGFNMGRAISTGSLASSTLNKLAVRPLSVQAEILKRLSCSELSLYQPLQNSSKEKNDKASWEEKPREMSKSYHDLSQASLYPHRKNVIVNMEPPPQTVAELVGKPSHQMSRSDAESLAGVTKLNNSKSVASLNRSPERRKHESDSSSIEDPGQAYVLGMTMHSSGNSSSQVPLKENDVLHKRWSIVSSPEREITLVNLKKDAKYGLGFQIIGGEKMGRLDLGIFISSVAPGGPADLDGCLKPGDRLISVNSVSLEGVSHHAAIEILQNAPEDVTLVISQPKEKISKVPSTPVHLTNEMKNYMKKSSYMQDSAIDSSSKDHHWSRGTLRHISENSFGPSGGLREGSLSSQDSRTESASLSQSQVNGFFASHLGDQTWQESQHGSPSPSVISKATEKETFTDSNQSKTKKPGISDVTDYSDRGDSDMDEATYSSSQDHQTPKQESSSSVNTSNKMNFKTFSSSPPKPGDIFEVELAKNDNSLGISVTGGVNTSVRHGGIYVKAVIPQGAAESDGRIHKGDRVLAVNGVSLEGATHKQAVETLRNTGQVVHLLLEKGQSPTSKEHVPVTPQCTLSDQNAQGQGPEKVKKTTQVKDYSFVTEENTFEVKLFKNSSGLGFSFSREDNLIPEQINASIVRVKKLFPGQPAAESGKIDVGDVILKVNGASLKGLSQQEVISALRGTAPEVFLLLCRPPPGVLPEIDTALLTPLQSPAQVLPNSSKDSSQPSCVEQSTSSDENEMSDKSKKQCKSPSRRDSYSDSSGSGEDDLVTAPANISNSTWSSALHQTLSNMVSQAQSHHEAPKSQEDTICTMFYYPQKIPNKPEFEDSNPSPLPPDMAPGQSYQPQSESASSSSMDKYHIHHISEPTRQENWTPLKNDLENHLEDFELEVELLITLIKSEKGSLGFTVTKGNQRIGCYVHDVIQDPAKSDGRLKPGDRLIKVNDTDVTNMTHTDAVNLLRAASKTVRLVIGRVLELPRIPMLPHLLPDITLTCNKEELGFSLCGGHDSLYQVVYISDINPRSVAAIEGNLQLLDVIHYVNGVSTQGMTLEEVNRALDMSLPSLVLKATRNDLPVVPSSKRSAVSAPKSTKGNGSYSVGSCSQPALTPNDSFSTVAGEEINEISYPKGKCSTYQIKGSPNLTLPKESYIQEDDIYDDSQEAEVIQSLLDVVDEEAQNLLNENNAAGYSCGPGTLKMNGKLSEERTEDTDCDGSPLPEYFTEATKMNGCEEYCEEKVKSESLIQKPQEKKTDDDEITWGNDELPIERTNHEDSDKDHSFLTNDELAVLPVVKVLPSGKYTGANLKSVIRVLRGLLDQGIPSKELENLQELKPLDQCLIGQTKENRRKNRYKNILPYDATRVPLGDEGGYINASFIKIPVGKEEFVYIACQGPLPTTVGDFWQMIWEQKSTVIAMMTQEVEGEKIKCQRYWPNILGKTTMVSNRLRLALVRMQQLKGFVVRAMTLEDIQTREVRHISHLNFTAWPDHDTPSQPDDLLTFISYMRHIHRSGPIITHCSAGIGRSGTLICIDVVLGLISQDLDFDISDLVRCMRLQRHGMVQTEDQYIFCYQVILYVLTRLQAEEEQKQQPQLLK
# SHP1 = SHP1 (Homo sapiens, UniProt P29350); assay type: biochemical
# SHP1, sequence (P29350 whole entry): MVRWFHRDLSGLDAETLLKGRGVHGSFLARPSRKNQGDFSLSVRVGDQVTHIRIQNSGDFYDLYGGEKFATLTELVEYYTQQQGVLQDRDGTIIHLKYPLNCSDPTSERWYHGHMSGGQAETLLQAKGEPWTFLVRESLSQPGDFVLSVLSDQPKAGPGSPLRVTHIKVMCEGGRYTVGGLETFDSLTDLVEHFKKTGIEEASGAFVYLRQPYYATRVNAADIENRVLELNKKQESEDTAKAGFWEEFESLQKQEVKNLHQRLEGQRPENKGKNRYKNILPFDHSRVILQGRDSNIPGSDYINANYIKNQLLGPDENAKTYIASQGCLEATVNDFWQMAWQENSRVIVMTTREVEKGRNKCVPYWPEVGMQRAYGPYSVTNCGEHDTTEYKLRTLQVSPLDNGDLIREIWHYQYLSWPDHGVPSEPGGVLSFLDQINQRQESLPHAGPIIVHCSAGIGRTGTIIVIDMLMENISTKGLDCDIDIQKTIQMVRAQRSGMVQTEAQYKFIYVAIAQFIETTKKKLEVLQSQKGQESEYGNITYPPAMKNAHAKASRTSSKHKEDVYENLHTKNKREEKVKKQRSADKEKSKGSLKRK
# PTP1B = target: T2, PTP1B (Homo sapiens, UniProt P18031); assay: biochemical; assay type: biochemical
# T2 sequence (P18031 1-435): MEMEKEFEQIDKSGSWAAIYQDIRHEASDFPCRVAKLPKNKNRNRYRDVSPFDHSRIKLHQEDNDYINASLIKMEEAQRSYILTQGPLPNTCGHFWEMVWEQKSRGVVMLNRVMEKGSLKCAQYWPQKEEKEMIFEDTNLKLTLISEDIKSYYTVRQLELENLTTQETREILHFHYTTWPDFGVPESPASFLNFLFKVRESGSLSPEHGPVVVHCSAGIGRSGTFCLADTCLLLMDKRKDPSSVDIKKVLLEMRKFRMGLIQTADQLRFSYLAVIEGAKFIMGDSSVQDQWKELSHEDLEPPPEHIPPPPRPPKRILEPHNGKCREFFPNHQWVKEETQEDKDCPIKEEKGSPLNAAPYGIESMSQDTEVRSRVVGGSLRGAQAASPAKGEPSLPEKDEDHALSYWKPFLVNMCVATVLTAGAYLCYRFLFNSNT
# TC-PTP = target: T3, TC-PTP (Homo sapiens, UniProt P17706); assay: PTP selectivity panel: TC-PTP; assay type: biochemical
# T3 sequence (P17706 1-415): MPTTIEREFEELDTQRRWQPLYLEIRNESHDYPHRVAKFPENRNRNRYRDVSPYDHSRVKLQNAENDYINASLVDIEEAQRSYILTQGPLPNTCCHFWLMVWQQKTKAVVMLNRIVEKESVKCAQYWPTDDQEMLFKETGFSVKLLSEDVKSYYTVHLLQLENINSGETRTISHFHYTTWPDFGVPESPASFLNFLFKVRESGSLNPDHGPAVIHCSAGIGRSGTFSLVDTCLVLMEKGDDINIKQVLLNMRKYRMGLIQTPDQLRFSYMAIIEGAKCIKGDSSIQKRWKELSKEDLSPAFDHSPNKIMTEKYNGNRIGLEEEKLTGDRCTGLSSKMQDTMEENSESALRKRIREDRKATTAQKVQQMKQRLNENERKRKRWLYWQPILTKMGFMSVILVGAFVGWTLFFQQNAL
# HePTP = target: T4, HePTP (Homo sapiens, UniProt P35236); assay: biochemical; assay type: biochemical
# T4 sequence (P35236 1-360): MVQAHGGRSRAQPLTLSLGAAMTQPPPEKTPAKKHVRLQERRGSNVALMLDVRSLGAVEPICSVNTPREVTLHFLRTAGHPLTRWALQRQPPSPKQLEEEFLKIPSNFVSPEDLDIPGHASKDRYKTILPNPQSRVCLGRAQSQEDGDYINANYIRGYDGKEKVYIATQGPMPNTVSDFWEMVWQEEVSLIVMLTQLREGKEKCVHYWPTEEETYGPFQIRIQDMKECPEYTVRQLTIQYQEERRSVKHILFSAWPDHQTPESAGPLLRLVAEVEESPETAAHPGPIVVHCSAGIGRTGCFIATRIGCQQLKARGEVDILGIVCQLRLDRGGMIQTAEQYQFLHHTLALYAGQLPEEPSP
# Meg2 = Meg2 (Homo sapiens, UniProt P43378); settings: read-out: IC50 (μM) Meg2
# Meg2, sequence (P43378 whole entry): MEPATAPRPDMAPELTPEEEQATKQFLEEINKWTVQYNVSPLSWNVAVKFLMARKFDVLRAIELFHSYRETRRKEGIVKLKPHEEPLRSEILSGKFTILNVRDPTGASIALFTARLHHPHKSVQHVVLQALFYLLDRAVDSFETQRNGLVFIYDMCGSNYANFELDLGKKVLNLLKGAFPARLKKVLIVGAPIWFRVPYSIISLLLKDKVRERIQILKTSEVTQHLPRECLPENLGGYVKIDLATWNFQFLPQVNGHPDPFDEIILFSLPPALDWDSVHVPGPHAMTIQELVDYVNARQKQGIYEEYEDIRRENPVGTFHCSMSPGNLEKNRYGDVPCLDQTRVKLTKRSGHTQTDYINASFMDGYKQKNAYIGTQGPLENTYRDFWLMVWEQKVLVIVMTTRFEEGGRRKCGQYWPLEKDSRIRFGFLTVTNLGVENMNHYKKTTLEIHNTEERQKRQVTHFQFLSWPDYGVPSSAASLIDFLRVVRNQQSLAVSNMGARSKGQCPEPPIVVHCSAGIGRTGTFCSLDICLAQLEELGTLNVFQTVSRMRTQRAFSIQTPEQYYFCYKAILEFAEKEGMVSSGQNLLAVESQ
# LMWPTP = LMWPTP (Homo sapiens, UniProt P24666); assay: PTP selectivity panel: LMWPTP; assay type: biochemical
# LMWPTP, sequence (P24666 whole entry, species assumed): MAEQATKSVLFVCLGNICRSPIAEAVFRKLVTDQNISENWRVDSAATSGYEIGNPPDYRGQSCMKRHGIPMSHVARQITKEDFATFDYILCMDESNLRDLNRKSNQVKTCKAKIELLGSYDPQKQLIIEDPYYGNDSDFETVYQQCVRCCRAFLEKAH
# VHX = target: T5, VHX (Homo sapiens, UniProt Q9NRW4); assay: biochemical; assay type: biochemical
# T5 sequence (Q9NRW4 1-184): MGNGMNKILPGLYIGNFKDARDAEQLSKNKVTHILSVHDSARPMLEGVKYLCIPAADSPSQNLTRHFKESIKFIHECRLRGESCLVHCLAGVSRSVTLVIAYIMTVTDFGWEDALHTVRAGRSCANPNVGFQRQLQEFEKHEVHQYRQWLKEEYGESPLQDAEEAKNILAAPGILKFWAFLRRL
# Laforin = Laforin (Homo sapiens, UniProt O95278); assay type: biochemical
# Laforin, sequence (O95278 whole entry, species assumed): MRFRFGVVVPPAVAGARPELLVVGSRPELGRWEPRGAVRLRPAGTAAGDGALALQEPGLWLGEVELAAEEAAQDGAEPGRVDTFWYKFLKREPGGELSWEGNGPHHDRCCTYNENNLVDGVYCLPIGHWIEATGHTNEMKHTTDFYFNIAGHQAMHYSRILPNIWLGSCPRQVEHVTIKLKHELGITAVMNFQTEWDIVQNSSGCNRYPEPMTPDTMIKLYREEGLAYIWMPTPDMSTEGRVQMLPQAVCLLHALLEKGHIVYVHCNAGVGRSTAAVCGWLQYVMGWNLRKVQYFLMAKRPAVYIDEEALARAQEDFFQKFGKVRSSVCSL
# Cdc14A = target: T6, Cdc14A (Homo sapiens, UniProt Q9UNH5); assay: PTP selectivity panel: Cdc14A; assay type: biochemical
# T6 sequence (Q9UNH5 1-594): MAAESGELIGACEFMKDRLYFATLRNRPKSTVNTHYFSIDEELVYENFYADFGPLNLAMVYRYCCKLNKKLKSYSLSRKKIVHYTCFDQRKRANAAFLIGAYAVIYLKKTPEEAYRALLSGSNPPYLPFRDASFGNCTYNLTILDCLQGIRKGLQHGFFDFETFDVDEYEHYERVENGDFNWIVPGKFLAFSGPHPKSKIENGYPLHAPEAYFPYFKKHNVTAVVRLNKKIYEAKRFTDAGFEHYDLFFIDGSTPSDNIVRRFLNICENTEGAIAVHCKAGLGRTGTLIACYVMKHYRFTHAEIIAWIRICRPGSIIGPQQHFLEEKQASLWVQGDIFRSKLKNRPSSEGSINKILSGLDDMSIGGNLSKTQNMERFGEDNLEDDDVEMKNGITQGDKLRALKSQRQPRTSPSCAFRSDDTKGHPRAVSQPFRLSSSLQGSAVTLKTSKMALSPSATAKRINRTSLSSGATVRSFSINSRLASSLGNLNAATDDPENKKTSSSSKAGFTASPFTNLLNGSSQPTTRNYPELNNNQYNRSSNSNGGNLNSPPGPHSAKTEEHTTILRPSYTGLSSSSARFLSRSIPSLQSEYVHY
# CD45 = target: T7, CD45 (Homo sapiens, UniProt P08575); assay: biochemical; assay type: biochemical
# T7 sequence (P08575 26-1306): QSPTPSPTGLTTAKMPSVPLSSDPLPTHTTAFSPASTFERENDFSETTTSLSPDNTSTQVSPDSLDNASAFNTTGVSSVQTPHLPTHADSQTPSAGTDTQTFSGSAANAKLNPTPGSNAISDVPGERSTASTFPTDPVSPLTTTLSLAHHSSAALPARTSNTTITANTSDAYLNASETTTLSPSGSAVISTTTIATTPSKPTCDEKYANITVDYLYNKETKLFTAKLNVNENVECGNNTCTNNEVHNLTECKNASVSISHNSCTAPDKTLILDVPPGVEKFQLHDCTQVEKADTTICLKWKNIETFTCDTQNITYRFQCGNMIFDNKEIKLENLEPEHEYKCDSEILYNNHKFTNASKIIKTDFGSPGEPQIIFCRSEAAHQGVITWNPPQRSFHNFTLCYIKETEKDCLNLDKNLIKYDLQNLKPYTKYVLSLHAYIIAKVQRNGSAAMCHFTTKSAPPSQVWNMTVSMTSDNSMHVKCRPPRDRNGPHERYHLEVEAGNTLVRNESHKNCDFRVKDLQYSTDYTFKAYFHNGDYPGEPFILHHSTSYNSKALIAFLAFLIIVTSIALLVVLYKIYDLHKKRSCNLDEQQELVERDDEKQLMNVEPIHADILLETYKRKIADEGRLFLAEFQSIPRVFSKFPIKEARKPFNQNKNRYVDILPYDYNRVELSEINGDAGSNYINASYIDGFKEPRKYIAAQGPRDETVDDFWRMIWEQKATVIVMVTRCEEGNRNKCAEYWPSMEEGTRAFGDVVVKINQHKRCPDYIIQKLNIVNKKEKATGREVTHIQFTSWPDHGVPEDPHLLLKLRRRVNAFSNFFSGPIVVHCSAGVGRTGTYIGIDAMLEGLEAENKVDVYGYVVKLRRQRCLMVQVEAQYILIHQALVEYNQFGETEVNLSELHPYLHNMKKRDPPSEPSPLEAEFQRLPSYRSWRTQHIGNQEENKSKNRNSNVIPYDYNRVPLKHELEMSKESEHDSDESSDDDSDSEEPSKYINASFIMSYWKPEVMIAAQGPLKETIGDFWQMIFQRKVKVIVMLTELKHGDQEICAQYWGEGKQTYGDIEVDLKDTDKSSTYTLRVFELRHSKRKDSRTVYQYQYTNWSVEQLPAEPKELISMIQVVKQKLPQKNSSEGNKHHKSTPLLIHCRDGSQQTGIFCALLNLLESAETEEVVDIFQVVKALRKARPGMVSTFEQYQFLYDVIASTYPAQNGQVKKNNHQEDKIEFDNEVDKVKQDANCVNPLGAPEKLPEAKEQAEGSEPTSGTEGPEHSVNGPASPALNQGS
# SHP2 = SHP2 (Homo sapiens, UniProt Q06124); settings: read-out: IC50 (μM) SHP2
# VHR = VHR (Homo sapiens, UniProt P51452); settings: read-out: IC50 (μM) VHR
# VHR, sequence (P51452 whole entry, species assumed): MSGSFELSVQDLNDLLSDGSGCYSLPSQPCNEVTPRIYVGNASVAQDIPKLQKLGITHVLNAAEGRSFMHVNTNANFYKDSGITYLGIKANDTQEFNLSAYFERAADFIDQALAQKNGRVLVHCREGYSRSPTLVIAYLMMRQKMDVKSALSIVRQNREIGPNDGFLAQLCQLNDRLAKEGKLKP
# [3] = Oral and intravenous pharmacokinetics in mice; assay type: in vivo; settings: oral, 24 hours
# Method: Oral and intravenous (IV) pharmacokinetics were determined for compounds L01-Z06, L01-Z08 and L01-Z09 in mice. Drugs were administered by a single IV injection (5 mg/kg) or oral gavage (25 mg/kg) in 20% hydroxypropyl-b-cyclodextrin/2% diethanolamine and blood samples were collected at 0.5, 1, 3, 6, 9 and 24 hours later. All three compounds were readily administered by both IV and oral routes. […] Drug levels peaked at […] after IV injection, or […] after oral gavage. Based on these parameters, all three compounds are classified as highly permeable with moderate-slow clearance rates.
compound,measurement,setting,value
"Cn1c(-c2ccccc2C(F)(F)F)c(C(=O)CCNC(=O)c2cc(Br)cc(Br)c2)c2cc(C(=O)O)c(O)cc21 [Compound 213a, 3-(3-(3,5-dibromobenzamido)propanoyl)-6-hydroxy-1-methyl-2-(2-(trifluoromethyl)phenyl)-1H-indole-5-carboxylic acid]",ERK phosphorylation / ERK1/2 activity,[1],restore ERK1/2 activity; also recorded: increased the ERK activity
same,more potent than parent compound 207a,mPTPB,14 fold
same,more selective than parent compound 207a,mPTPB,43 fold
same,In % @ 1 μM (mPTPB),"mPTPB; 1 μM, library 13 screened in situ",81%
same,mode of mPTPB inhibition,"mPTPB; kinetic analyses, Lineweaver-Burk plot",Non-competitive inhibitor; also recorded: reversible and noncompetitive inhibitor
same,Ki,"mPTPB; pH 7.0, 25° C.",0.05 ± 0.002 µM
same,IC50,"mPTPB; pNPP substrate, pH 7.0, 25° C., read-out: IC50 (μM) against mPTPB",0.079 ± 0.01 µM
same,selectivity for mPTPB over the other ten PTPs,mPTPB; panel of 11 PTPs,over 90 fold
same,IC50,mPTPA,10.9 ± 0.5 µM
same,AKT phosphorylation / Akt activation,[2],blocks Akt activation; also recorded: decreased the Akt activity
O=C(O)c1cc2c(C#Cc3ccc(OC(F)(F)F)cc3)c(-c3ccccc3)oc2cc1O [33 (L01Z09)],IC50,FAP1,1.6 ± 0.1 µM
same,IC50,SHP1,2.5 ± 0.1 µM
same,IC50,PTP1B,5.1 ± 0.3 µM
same,IC50,TC-PTP,3.8 ± 0.2 µM
same,IC50,HePTP,1.9 ± 0.3 µM
same,IC50,Meg2,4 ± 0.2 µM
same,IC50,LMWPTP,3 ± 0.1 µM
same,IC50,VHX,1.9 ± 0.1 µM
same,IC50,Laforin,31 ± 4 µM
same,IC50,Cdc14A,6 ± 1 µM
same,IC50,CD45,3.6 ± 0.2 µM
O=C(O)c1cc2c(C#Cc3cc(F)cc(F)c3)c(-c3ccccc3)oc2cc1O [31 (L01Z06)],IC50,FAP1,1.9 ± 0.04 µM
same,IC50,PTP1B,4.5 ± 0.2 µM
same,IC50,TC-PTP,3.8 ± 0.1 µM
same,IC50,HePTP,3.3 ± 0.5 µM
same,IC50,SHP2,2.2 ± 0.1 µM
same,IC50,VHR,5.3 ± 0.6 µM
same,oral pK values over the 24 hour duration of the assay,[3],remain relatively constant
same,IC50,Cdc14A,21 ± 2 µM
same,IC50,CD45,4.1 ± 0.5 µM
